In the NIST ThermoML archive (doi:10.1021/je900672g):
± gives the expanded uncertainty stated by the source.

Experiment: isobaric coefficient of expansion
Conditions: Liquid, DSC

C[N+](=O)[O-] [nitromethane]
isobaric coefficient of expansion
Conditions | 278.15 K | 288.15 K | 298.15 K | 308.15 K | 318.15 K | 328.15 K | 338.15 K | 348.15 K
5000 kPa | 0.00116 ± 2.8e-05 1/K | 0.00118 ± 2.9e-05 1/K | 0.00121 ± 3e-05 1/K | 0.00123 ± 3e-05 1/K | 0.00126 ± 3.1e-05 1/K | 0.00129 ± 3.2e-05 1/K | 0.00134 ± 3.3e-05 1/K | 0.00138 ± 3.4e-05 1/K
10000 kPa | 0.00114 ± 2.8e-05 1/K | 0.00116 ± 2.8e-05 1/K | 0.00118 ± 2.9e-05 1/K | 0.0012 ± 2.9e-05 1/K | 0.00123 ± 3e-05 1/K | 0.00126 ± 3.1e-05 1/K | 0.00128 ± 3.1e-05 1/K | 0.00132 ± 3.2e-05 1/K
15000 kPa | 0.00113 ± 2.8e-05 1/K | 0.00114 ± 2.8e-05 1/K | 0.00116 ± 2.8e-05 1/K | 0.00118 ± 2.9e-05 1/K | 0.00119 ± 2.9e-05 1/K | 0.00121 ± 3e-05 1/K | 0.00124 ± 3e-05 1/K | 0.00127 ± 3.1e-05 1/K
20000 kPa | 0.0011 ± 2.7e-05 1/K | 0.00112 ± 2.7e-05 1/K | 0.00113 ± 2.8e-05 1/K | 0.00115 ± 2.8e-05 1/K | 0.00116 ± 2.8e-05 1/K | 0.00117 ± 2.9e-05 1/K | 0.0012 ± 3e-05 1/K | 0.00122 ± 3e-05 1/K
25000 kPa | 0.00108 ± 2.6e-05 1/K | 0.0011 ± 2.7e-05 1/K | 0.00111 ± 2.7e-05 1/K | 0.00112 ± 2.7e-05 1/K | 0.00113 ± 2.8e-05 1/K | 0.00114 ± 2.8e-05 1/K | 0.00117 ± 2.9e-05 1/K | 0.00119 ± 2.9e-05 1/K
30000 kPa | 0.00106 ± 2.6e-05 1/K | 0.00108 ± 2.6e-05 1/K | 0.00109 ± 2.7e-05 1/K | 0.0011 ± 2.7e-05 1/K | 0.00111 ± 2.7e-05 1/K | 0.00112 ± 2.7e-05 1/K | 0.00113 ± 2.8e-05 1/K | 0.00115 ± 2.8e-05 1/K
35000 kPa | 0.00105 ± 2.6e-05 1/K | 0.00106 ± 2.6e-05 1/K | 0.00107 ± 2.6e-05 1/K | 0.00108 ± 2.6e-05 1/K | 0.00109 ± 2.7e-05 1/K | 0.0011 ± 2.7e-05 1/K | 0.00111 ± 2.7e-05 1/K | 0.00112 ± 2.7e-05 1/K
40000 kPa | 0.00103 ± 2.5e-05 1/K | 0.00104 ± 2.6e-05 1/K | 0.00105 ± 2.6e-05 1/K | 0.00105 ± 2.6e-05 1/K | 0.00106 ± 2.6e-05 1/K | 0.00107 ± 2.6e-05 1/K | 0.00107 ± 2.6e-05 1/K | 0.00108 ± 2.6e-05 1/K
45000 kPa | 0.00102 ± 2.5e-05 1/K | 0.00102 ± 2.5e-05 1/K | 0.00103 ± 2.5e-05 1/K | 0.00103 ± 2.5e-05 1/K | 0.00104 ± 2.6e-05 1/K | 0.00105 ± 2.6e-05 1/K | 0.00105 ± 2.6e-05 1/K | 0.00106 ± 2.6e-05 1/K
50000 kPa | 0.001 ± 2.5e-05 1/K | 0.00101 ± 2.5e-05 1/K | 0.00101 ± 2.5e-05 1/K | 0.00102 ± 2.5e-05 1/K | 0.00103 ± 2.5e-05 1/K | 0.00103 ± 2.5e-05 1/K | 0.00103 ± 2.5e-05 1/K | 0.00103 ± 2.5e-05 1/K
55000 kPa | 0.000986 ± 2.4e-05 1/K | 0.000992 ± 2.4e-05 1/K | 0.000998 ± 2.4e-05 1/K | 0.001 ± 2.5e-05 1/K | 0.00101 ± 2.5e-05 1/K | 0.00101 ± 2.5e-05 1/K | 0.00102 ± 2.5e-05 1/K | 0.00102 ± 2.5e-05 1/K

CCC#N [propanenitrile]
isobaric coefficient of expansion
Conditions | 278.15 K | 288.15 K | 298.15 K | 308.15 K | 318.15 K | 328.15 K | 338.15 K | 348.15 K
5000 kPa | 0.00122 ± 3e-05 1/K | 0.00125 ± 3.1e-05 1/K | 0.00128 ± 3.1e-05 1/K | 0.0013 ± 3.2e-05 1/K | 0.00135 ± 3.3e-05 1/K | 0.00139 ± 3.4e-05 1/K | 0.00144 ± 3.5e-05 1/K | 0.0015 ± 3.7e-05 1/K
10000 kPa | 0.0012 ± 2.9e-05 1/K | 0.00121 ± 3e-05 1/K | 0.00123 ± 3e-05 1/K | 0.00126 ± 3.1e-05 1/K | 0.00129 ± 3.2e-05 1/K | 0.00133 ± 3.3e-05 1/K | 0.00136 ± 3.3e-05 1/K | 0.00141 ± 3.5e-05 1/K
15000 kPa | 0.00117 ± 2.9e-05 1/K | 0.00118 ± 2.9e-05 1/K | 0.0012 ± 2.9e-05 1/K | 0.00121 ± 3e-05 1/K | 0.00125 ± 3.1e-05 1/K | 0.00127 ± 3.1e-05 1/K | 0.0013 ± 3.2e-05 1/K | 0.00133 ± 3.3e-05 1/K
20000 kPa | 0.00114 ± 2.8e-05 1/K | 0.00115 ± 2.8e-05 1/K | 0.00117 ± 2.9e-05 1/K | 0.00118 ± 2.9e-05 1/K | 0.0012 ± 2.9e-05 1/K | 0.00122 ± 3e-05 1/K | 0.00125 ± 3.1e-05 1/K | 0.00127 ± 3.1e-05 1/K
25000 kPa | 0.00111 ± 2.7e-05 1/K | 0.00112 ± 2.8e-05 1/K | 0.00113 ± 2.8e-05 1/K | 0.00114 ± 2.8e-05 1/K | 0.00116 ± 2.8e-05 1/K | 0.00118 ± 2.9e-05 1/K | 0.0012 ± 2.9e-05 1/K | 0.00122 ± 3e-05 1/K
30000 kPa | 0.00109 ± 2.7e-05 1/K | 0.0011 ± 2.7e-05 1/K | 0.00111 ± 2.7e-05 1/K | 0.00111 ± 2.7e-05 1/K | 0.00113 ± 2.8e-05 1/K | 0.00114 ± 2.8e-05 1/K | 0.00115 ± 2.8e-05 1/K | 0.00117 ± 2.9e-05 1/K
35000 kPa | 0.00107 ± 2.6e-05 1/K | 0.00107 ± 2.6e-05 1/K | 0.00108 ± 2.6e-05 1/K | 0.00109 ± 2.7e-05 1/K | 0.0011 ± 2.7e-05 1/K | 0.00111 ± 2.7e-05 1/K | 0.00112 ± 2.7e-05 1/K | 0.00113 ± 2.8e-05 1/K
40000 kPa | 0.00104 ± 2.6e-05 1/K | 0.00105 ± 2.6e-05 1/K | 0.00105 ± 2.6e-05 1/K | 0.00106 ± 2.6e-05 1/K | 0.00106 ± 2.6e-05 1/K | 0.00107 ± 2.6e-05 1/K | 0.00107 ± 2.6e-05 1/K | 0.00108 ± 2.6e-05 1/K
45000 kPa | 0.00102 ± 2.5e-05 1/K | 0.00103 ± 2.5e-05 1/K | 0.00103 ± 2.5e-05 1/K | 0.00104 ± 2.5e-05 1/K | 0.00104 ± 2.5e-05 1/K | 0.00105 ± 2.6e-05 1/K | 0.00105 ± 2.6e-05 1/K | 0.00105 ± 2.6e-05 1/K
50000 kPa | 0.001 ± 2.5e-05 1/K | 0.00101 ± 2.5e-05 1/K | 0.00101 ± 2.5e-05 1/K | 0.00101 ± 2.5e-05 1/K | 0.00102 ± 2.5e-05 1/K | 0.00102 ± 2.5e-05 1/K | 0.00102 ± 2.5e-05 1/K | 0.00103 ± 2.5e-05 1/K
55000 kPa | 0.000991 ± 2.4e-05 1/K | 0.000992 ± 2.4e-05 1/K | 0.000993 ± 2.4e-05 1/K | 0.000994 ± 2.4e-05 1/K | 0.001 ± 2.5e-05 1/K | 0.001 ± 2.5e-05 1/K | 0.00101 ± 2.5e-05 1/K | 0.00101 ± 2.5e-05 1/K
